Laboratory results taken from PubChem BioAssay (NCI).
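Tested at 5 concentrations; 48 h exposure; 96-well plates; endpoints linearly interpolated, else capped at highest concentration. The concentration for full growth arrest is given as TGI.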

How the values were obtained:
Assay in all cases: NCI anticancer screen, dose series, 48 h
786-0 renal = tested on: 786-0 renal
A498 renal = tested on: A498 renal
A549 NSCLC = tested on: A549 NSCLC
ACHN renal = tested on: ACHN renal
BT-549 breast = tested on: BT-549 breast
CAKI-1 renal = tested on: CAKI-1 renal
CCRF-CEM leukemia = tested on: CCRF-CEM leukemia
COLO 205 colon = tested on: COLO 205 colon
DU-145 prostate = tested on: DU-145 prostate
EKVX NSCLC = tested on: EKVX NSCLC
HCC-2998 colon = tested on: HCC-2998 colon
HCT-116 colon = tested on: HCT-116 colon
HCT-15 colon = tested on: HCT-15 colon
HOP-62 NSCLC = tested on: HOP-62 NSCLC
HOP-92 NSCLC = tested on: HOP-92 NSCLC
HS 578T breast = tested on: HS 578T breast
HT29 colon = tested on: HT29 colon
IGROV1 ovarian = tested on: IGROV1 ovarian
K-562 leukemia = tested on: K-562 leukemia
KM12 colon = tested on: KM12 colon
LOX IMVI melanoma = tested on: LOX IMVI melanoma
M14 melanoma = tested on: M14 melanoma
MALME-3M melanoma = tested on: MALME-3M melanoma
MCF7 breast = tested on: MCF7 breast
MDA-MB-435 = tested on: MDA-MB-435
MDA-N = tested on: MDA-N
MOLT-4 leukemia = tested on: MOLT-4 leukemia
NCI-H226 lung = tested on: NCI-H226 lung
NCI-H23 lung = tested on: NCI-H23 lung
NCI-H460 lung = tested on: NCI-H460 lung
NCI-H522 lung = tested on: NCI-H522 lung
NCI/ADR-RES ovarian = tested on: NCI/ADR-RES ovarian
OVCAR-3 ovarian = tested on: OVCAR-3 ovarian
OVCAR-4 ovarian = tested on: OVCAR-4 ovarian
OVCAR-5 ovarian = tested on: OVCAR-5 ovarian
OVCAR-8 ovarian = tested on: OVCAR-8 ovarian
PC-3 prostate = tested on: PC-3 prostate
RPMI-8226 leukemia = tested on: RPMI-8226 leukemia
RXF 393 renal = tested on: RXF 393 renal
SF-268 CNS = tested on: SF-268 CNS
SF-295 CNS = tested on: SF-295 CNS
SK-MEL-28 melanoma = tested on: SK-MEL-28 melanoma
SK-MEL-5 melanoma = tested on: SK-MEL-5 melanoma
SK-OV-3 ovarian = tested on: SK-OV-3 ovarian
SN12C renal = tested on: SN12C renal
SNB-19 CNS = tested on: SNB-19 CNS
SW-620 colon = tested on: SW-620 colon
T-47D breast = tested on: T-47D breast
TK-10 renal = tested on: TK-10 renal
U251 CNS = tested on: U251 CNS
UACC-257 melanoma = tested on: UACC-257 melanoma
UACC-62 melanoma = tested on: UACC-62 melanoma
UO-31 renal = tested on: UO-31 renal
HL-60(TB) leukemia = tested on: HL-60(TB) leukemia
MDA-MB-231 breast = tested on: MDA-MB-231 breast
SF-539 CNS = tested on: SF-539 CNS
SK-MEL-2 melanoma = tested on: SK-MEL-2 melanoma
SNB-75 CNS = tested on: SNB-75 CNS
SR leukemia = tested on: SR leukemia

How did the TGI (786-0 renal) turn out when CC(=O)Nc1ccc2c(c1)C(=Nc1ccc(C(=O)O)cc1)c1ccccc1-2 was run?
Its TGI is greater than 100 µM.

And the TGI (A498 renal)?
The TGI was greater than 100 µM.

What about the TGI (A549 NSCLC) of the same molecule?
The TGI was greater than 100 µM.

And the TGI (ACHN renal)?
Its TGI is greater than 100 µM.

And the TGI (BT-549 breast)?
Its TGI is greater than 100 µM.

And the TGI (CAKI-1 renal)?
The TGI was greater than 100 µM.

And the TGI (CCRF-CEM leukemia)?
Its TGI is greater than 100 µM.

What about the TGI (COLO 205 colon) of the same molecule?
The TGI was greater than 100 µM.

And the TGI (DU-145 prostate)?
Its TGI is greater than 100 µM.

And the TGI (EKVX NSCLC)?
Its TGI is 84.9 µM.

And the TGI (HCC-2998 colon)?
Its TGI is greater than 100 µM.

And the TGI (HCT-116 colon)?
Its TGI is greater than 100 µM.

And the TGI (HCT-15 colon)?
Its TGI is greater than 100 µM.

And the TGI (HOP-62 NSCLC)?
Its TGI is greater than 100 µM.

And the TGI (HOP-92 NSCLC)?
Its TGI is greater than 100 µM.

What about the TGI (HS 578T breast) of the same molecule?
Its TGI is greater than 100 µM.

And the TGI (HT29 colon)?
The TGI was greater than 100 µM.

What about the TGI (IGROV1 ovarian) of the same molecule?
The TGI was greater than 100 µM.

What about the TGI (K-562 leukemia) of the same molecule?
Its TGI is greater than 100 µM.

What about the TGI (KM12 colon) of the same molecule?
Its TGI is greater than 100 µM.

And the TGI (LOX IMVI melanoma)?
The TGI was greater than 100 µM.

What about the TGI (M14 melanoma) of the same molecule?
The TGI was greater than 100 µM.

What about the TGI (MALME-3M melanoma) of the same molecule?
The TGI was greater than 100 µM.

What about the TGI (MCF7 breast) of the same molecule?
The TGI was greater than 100 µM.

What about the TGI (MDA-MB-435) of the same molecule?
Its TGI is greater than 100 µM.

And the TGI (MDA-N)?
The TGI was greater than 100 µM.

What about the TGI (MOLT-4 leukemia) of the same molecule?
Its TGI is greater than 100 µM.

What about the TGI (NCI-H226 lung) of the same molecule?
Its TGI is 87.1 µM.

What about the TGI (NCI-H23 lung) of the same molecule?
Its TGI is greater than 100 µM.

And the TGI (NCI-H460 lung)?
Its TGI is greater than 100 µM.

What about the TGI (NCI-H522 lung) of the same molecule?
The TGI was greater than 100 µM.

What about the TGI (NCI/ADR-RES ovarian) of the same molecule?
Its TGI is greater than 100 µM.

What about the TGI (OVCAR-3 ovarian) of the same molecule?
Its TGI is greater than 100 µM.

And the TGI (OVCAR-4 ovarian)?
The TGI was greater than 100 µM.

And the TGI (OVCAR-5 ovarian)?
Its TGI is greater than 100 µM.

And the TGI (OVCAR-8 ovarian)?
Its TGI is greater than 100 µM.

And the TGI (PC-3 prostate)?
The TGI was greater than 100 µM.

What about the TGI (RPMI-8226 leukemia) of the same molecule?
The TGI was greater than 100 µM.

What about the TGI (RXF 393 renal) of the same molecule?
Its TGI is greater than 100 µM.

What about the TGI (SF-268 CNS) of the same molecule?
The TGI was greater than 100 µM.

What about the TGI (SF-295 CNS) of the same molecule?
The TGI was greater than 100 µM.

And the TGI (SK-MEL-28 melanoma)?
Its TGI is greater than 100 µM.

And the TGI (SK-MEL-5 melanoma)?
The TGI was greater than 100 µM.

And the TGI (SK-OV-3 ovarian)?
The TGI was greater than 100 µM.

And the TGI (SN12C renal)?
The TGI was greater than 100 µM.

What about the TGI (SNB-19 CNS) of the same molecule?
The TGI was greater than 100 µM.

What about the TGI (SW-620 colon) of the same molecule?
The TGI was greater than 100 µM.

What about the TGI (T-47D breast) of the same molecule?
Its TGI is greater than 100 µM.

What about the TGI (TK-10 renal) of the same molecule?
Its TGI is greater than 100 µM.

What about the TGI (U251 CNS) of the same molecule?
Its TGI is greater than 100 µM.

And the TGI (UACC-257 melanoma)?
Its TGI is greater than 100 µM.

And the TGI (UACC-62 melanoma)?
Its TGI is greater than 100 µM.

And the TGI (UO-31 renal)?
Its TGI is greater than 100 µM.

With c1cc(-c2ccc(Oc3ccc(-c4ccncc4)cc3)cc2)ccn1 as the molecule, how does the TGI (786-0 renal) read?
The TGI was greater than 100 µM.

And the TGI (A498 renal)?
The TGI was greater than 69.7 µM.

And the TGI (A549 NSCLC)?
Its TGI is greater than 100 µM.

And the TGI (ACHN renal)?
The TGI was greater than 100 µM.

And the TGI (BT-549 breast)?
Its TGI is greater than 59.7 µM.

What about the TGI (CAKI-1 renal) of the same molecule?
The TGI was greater than 27.1 µM.

What about the TGI (CCRF-CEM leukemia) of the same molecule?
The TGI was greater than 47.3 µM.

And the TGI (COLO 205 colon)?
The TGI was 18.7 µM.

What about the TGI (DU-145 prostate) of the same molecule?
Its TGI is greater than 100 µM.

And the TGI (EKVX NSCLC)?
The TGI was greater than 67.1 µM.

And the TGI (HCC-2998 colon)?
The TGI was greater than 54.5 µM.

What about the TGI (HCT-116 colon) of the same molecule?
The TGI was greater than 100 µM.

And the TGI (HCT-15 colon)?
Its TGI is 96.9 µM.

And the TGI (HL-60(TB) leukemia)?
Its TGI is 11.1 µM.

What about the TGI (HOP-62 NSCLC) of the same molecule?
The TGI was greater than 100 µM.

And the TGI (HOP-92 NSCLC)?
The TGI was greater than 88.6 µM.

What about the TGI (HS 578T breast) of the same molecule?
Its TGI is greater than 69.9 µM.

What about the TGI (HT29 colon) of the same molecule?
The TGI was greater than 49.6 µM.

What about the TGI (IGROV1 ovarian) of the same molecule?
The TGI was greater than 100 µM.

What about the TGI (K-562 leukemia) of the same molecule?
The TGI was greater than 100 µM.

And the TGI (KM12 colon)?
The TGI was greater than 27.4 µM.

What about the TGI (LOX IMVI melanoma) of the same molecule?
Its TGI is greater than 100 µM.

What about the TGI (M14 melanoma) of the same molecule?
Its TGI is greater than 100 µM.

What about the TGI (MALME-3M melanoma) of the same molecule?
The TGI was greater than 44 µM.

What about the TGI (MCF7 breast) of the same molecule?
Its TGI is greater than 100 µM.

What about the TGI (MDA-MB-231 breast) of the same molecule?
The TGI was greater than 100 µM.

And the TGI (MDA-N)?
The TGI was greater than 100 µM.

And the TGI (MOLT-4 leukemia)?
Its TGI is 41.5 µM.

What about the TGI (NCI-H226 lung) of the same molecule?
Its TGI is greater than 100 µM.

And the TGI (NCI-H23 lung)?
The TGI was greater than 34 µM.

And the TGI (NCI-H460 lung)?
Its TGI is greater than 94.2 µM.

What about the TGI (NCI-H522 lung) of the same molecule?
Its TGI is greater than 79.4 µM.

What about the TGI (NCI/ADR-RES ovarian) of the same molecule?
Its TGI is greater than 90.9 µM.

What about the TGI (OVCAR-3 ovarian) of the same molecule?
Its TGI is greater than 61.8 µM.

And the TGI (OVCAR-4 ovarian)?
The TGI was greater than 100 µM.

And the TGI (OVCAR-5 ovarian)?
Its TGI is greater than 100 µM.

And the TGI (OVCAR-8 ovarian)?
Its TGI is greater than 100 µM.

And the TGI (PC-3 prostate)?
Its TGI is greater than 100 µM.

And the TGI (RPMI-8226 leukemia)?
Its TGI is 4.96 µM.

What about the TGI (RXF 393 renal) of the same molecule?
The TGI was greater than 86 µM.

And the TGI (SF-268 CNS)?
Its TGI is greater than 100 µM.

And the TGI (SF-295 CNS)?
The TGI was greater than 100 µM.

What about the TGI (SF-539 CNS) of the same molecule?
The TGI was greater than 100 µM.

And the TGI (SK-MEL-2 melanoma)?
The TGI was greater than 100 µM.

What about the TGI (SK-MEL-28 melanoma) of the same molecule?
Its TGI is greater than 95.1 µM.

And the TGI (SK-MEL-5 melanoma)?
Its TGI is 5.52 µM.

What about the TGI (SK-OV-3 ovarian) of the same molecule?
Its TGI is greater than 100 µM.

And the TGI (SN12C renal)?
Its TGI is greater than 100 µM.

What about the TGI (SNB-19 CNS) of the same molecule?
Its TGI is greater than 100 µM.

What about the TGI (SNB-75 CNS) of the same molecule?
The TGI was greater than 73.7 µM.

What about the TGI (SR leukemia) of the same molecule?
Its TGI is 9.97 µM.

What about the TGI (SW-620 colon) of the same molecule?
The TGI was greater than 100 µM.

What about the TGI (T-47D breast) of the same molecule?
Its TGI is greater than 100 µM.

What about the TGI (TK-10 renal) of the same molecule?
Its TGI is greater than 66.1 µM.

And the TGI (U251 CNS)?
The TGI was greater than 48.8 µM.

What about the TGI (UACC-257 melanoma) of the same molecule?
Its TGI is greater than 68.3 µM.

And the TGI (UACC-62 melanoma)?
The TGI was greater than 100 µM.

What about the TGI (UO-31 renal) of the same molecule?
Its TGI is greater than 100 µM.
